Our source for the MIC and Activity values is ChEMBL document CHEMBL1649537, “Imcroporin, a new cationic antimicrobial peptide from the venom of the scorpion Isometrus maculates” (2009).

Assay [1] relates to Staphylococcus aureus. Put plainly: Antimicrobial activity against methicillin-resistant Staphylococcus aureus P1374 by microdilution method. The class given is functional. In general terms: Dilution methods test growth across graded concentrations, often in twofold steps.
The next assay concerns Micrococcus luteus. Put plainly: Antimicrobial activity against Micrococcus luteus AB93113 by microdilution method. It is filed as functional.
Assay [2] has as its system Staphylococcus aureus. Put plainly: Antimicrobial activity against methicillin-resistant Staphylococcus aureus P1386 by microdilution method. It is filed as functional.
Assay [3] has as its system Staphylococcus aureus. Put plainly: Antimicrobial activity against methicillin-resistant Staphylococcus aureus P1386 at 200 ug/ml after 9 hrs by time-kill analysis. The class given is functional, organism-based.
In a further assay the test system is Staphylococcus. Put plainly: Antimicrobial activity against methicillin-resistant coagulase-negative Staphylococcus P1369 by microdilution method. It is filed as functional.
Assay [4] concerns Staphylococcus aureus. Put plainly: Antimicrobial activity against Staphylococcus aureus AB94004 by microdilution method. It is filed as functional.
The next assay deals with Escherichia coli. Put plainly: Antimicrobial activity against Escherichia coli AB94012 by microdilution method. It is filed as functional.
Assay [5] has as its system Staphylococcus epidermidis. Put plainly: Antimicrobial activity against penicillin-sensitive Staphylococcus epidermidis P1111 by microdilution method. The class given is functional.
The test system of a further assay is Bacillus thuringiensis. Put plainly: Antimicrobial activity against Bacillus thuringiensis AB93066 by microdilution method. The class given is functional.
For the next assay, the system named is Bacillus subtilis. Put plainly: Antimicrobial activity against Bacillus subtilis AB91021 by microdilution method. The class given is functional.
Assay [6] deals with Staphylococcus epidermidis. Put plainly: Antimicrobial activity against penicillin-resistant Staphylococcus epidermidis P1389 by microdilution method. It is filed as functional.
Another assay has as its system Pseudomonas aeruginosa. Put plainly: Antimicrobial activity against Pseudomonas aeruginosa AB92037 by microdilution method. It is filed as functional.
Assay [7] relates to Staphylococcus aureus. Put plainly: Antimicrobial activity against methicillin-resistant Staphylococcus aureus P1386 at 500 ug/ml after 9 hrs by time-kill analysis. It is filed as functional, organism-based.

In brackets after ≈: the same amount, converted by molar mass. Activity calls are given as the source filed them. The calls are words filed in the database; no cut-off is given here.

By MIC is commonly meant the lowest concentration that inhibits growth of the organism. For `CO/N=C(\C(=O)N[C@@H]1C(=O)N2C(C(=O)O)=C(COC(C)=O)CS[C@H]12)c1csc(N)n1` [CEFOTAXIME], the MIC was 400 µg/mL (≈ 878 µM) with Staphylococcus aureus [1]; 3 µg/mL (≈ 6.59 µM) in the assay on Micrococcus luteus; 400 µg/mL (≈ 878 µM) against Staphylococcus aureus [2]; 100 µg/mL (≈ 220 µM) against Staphylococcus; 3 µg/mL (≈ 6.59 µM) against Staphylococcus aureus [4]; 3 µg/mL (≈ 6.59 µM) with Escherichia coli. Moreover, the MIC turned out to be 8 µg/mL (≈ 17.6 µM) in [5]; 12.5 µg/mL (≈ 27.4 µM) with Bacillus thuringiensis; 50 µg/mL (≈ 110 µM) in the assay on Bacillus subtilis; 12.5 µg/mL (≈ 27.4 µM) in [6]; 12.5 µg/mL (≈ 27.4 µM) in the assay with Pseudomonas aeruginosa. Besides, the result in the assay on Staphylococcus aureus [3] was inactive.
For the molecule `CC1(C)S[C@@H]2[C@H](NC(=O)Cc3ccccc3)C(=O)N2[C@H]1C(=O)O` [PENICILLIN G], the MIC with Staphylococcus aureus [1] stood at 1000 µg/mL (≈ 2990 µM); against Micrococcus luteus, 25 µg/mL (≈ 74.8 µM); in the assay with Staphylococcus aureus [2], 1000 µg/mL (≈ 2990 µM); with Staphylococcus it was 2000 µg/mL (≈ 5980 µM); against Staphylococcus aureus [4], 6 µg/mL (≈ 17.9 µM); in [5] it was 4 µg/mL (≈ 12 µM). For the same molecule, the MIC was determined as 12.5 µg/mL (≈ 37.4 µM) in the assay with Bacillus thuringiensis, 50 µg/mL (≈ 150 µM) in the assay with Bacillus subtilis and 1000 µg/mL (≈ 2990 µM) in assay [6]. In the assay with Staphylococcus aureus [7], the outcome was inactive.
Take `CN[C@H](CC(C)C)C(=O)N[C@H]1C(=O)N[C@@H](CC(N)=O)C(=O)N[C@H]2C(=O)N[C@H]3C(=O)N[C@H](C(=O)N[C@H](C(=O)O)c4cc(O)cc(O)c4-c4cc3ccc4O)[C@H](O)c3ccc(c(Cl)c3)Oc3cc2cc(c3O[C@@H]2O[C@H](CO)[C@@H](O)[C@H](O)[C@H]2O[C@H]2C[C@](C)(N)[C@H](O)[C@H](C)O2)Oc2ccc(cc2Cl)[C@H]1O` [VANCOMYCIN]: the MIC is 3 µg/mL (≈ 2.07 µM) against Micrococcus luteus, 4 µg/mL (≈ 2.76 µM) against Staphylococcus, 3 µg/mL (≈ 2.07 µM) in the assay on Bacillus thuringiensis and 3 µg/mL (≈ 2.07 µM) against Bacillus subtilis.
